According to US20230058189A1, “QUINOLIN-4-ONE AND 4(1H)-CINNOLINONE COMPOUNDS AND METHODS OF USING SAME” (Frequency Therapeutics, Inc., priority 2019, published 2023):

Experiments:
Type in all cases: biochemical
LSD-1 = LSD-1 (Homo sapiens, UniProt O60341); test: LSD-1 A-screen (AlphaScreen) demethylase enzymatic assay; details: approximate values; for IC50: read-out: Potency LSD-1 IC50; for inhibition at 50 µM: read-out: Potency LSD-1 % Inhibition at 50 μM
Method: (§1) Enzymatic activities of compounds of the present disclosure can be tested with recombinant human LSD using an in vitro enzymatic assay to determine the ability of the compounds of the present disclosure to inhibit LSD-1 and LSD2. Examples of the assay are provided below.
(§2) All of the enzymatic reactions were conducted in duplicate at room temperature for 60 minutes in a 10 μL mixture containing assay buffer, histone H3 peptide substrate, demthylase enzyme, and the test compound. These 10 μL reactions were carried out in wells of a 384-well Optiplate (PerkinElmer). The dilution of the compounds was first performed in 100% DMSO with the highest concentration at 5 mM Each intermediate compound dilution (in 100% DMSO) was then directly diluted 30× fold into assay buffer for 3.3× concentration (DMSO). […] From this intermediate step, 3 μL of compound was added to 4 μL of demethylase enzyme dilution was incubated for 30 minutes at room temperature. After this incubation, 3 μL of peptide substrate was added. The final DMSO concentration was 1%. After enzymatic reactions, 5 μL of anti-Mouse or anti-Rabbit Acceptor beads (PerkinElmer, diluted 1:500 with 1× detection buffer) and […] (BPS, diluted 1:800 with 1× detection buffer) were added to the reaction mix. After brief shaking, the plate was incubated for 30 minutes. Finally, 10 μL of AlphaScreen™ Streptavidin-conjugated donor beads (Perkin, diluted 1:125 with 1× detection buffer) were added. After 30 minutes, the samples were measured in an AlphaScreen microplate reader (EnSpire Alpha 2390 Multilabel Reader, Perkin Elmer).
(§3) Enzyme activity assays were performed in duplicates at each concentration. The A-screen intensity data were analyzed and compared. In the absence of the compound, the intensity in each data set was defined as 100% (Ce) activity. In the absence of enzyme, the intensity in each data set was defined as 0% (C0) activity. The percent activity in the presence of each compound was calculated according to the following equation: % activity=(C−C0)/(Ce−C0), where C=the intensity in the presence of the compound.
(§4) The value of percent activity versus a series of compound concentrations was then plotted using non-linear regression analysis of Sigmoidal dose-response curve generated with the equation Y=B+(T−B)/1+10((LogEC50−X)×Hill Slope), where Y=percent activity, B=minimum percent activity, T=maximum percent activity, X=logarithm of compound and Hill Slope=slope factor or Hill coefficient. The IC50 value was determined by the concentration causing a half-maximal percent activity.

LSD2 = molecular target: T1, LSD2 (Homo sapiens, UniProt Q8NB78); test: LSD2 A-screen (AlphaScreen) demethylase enzymatic assay; details: approximate values; for inhibition at 50 µM: 50 μM compound, read-out: Potency LSD-2 % Inhibition at 50 μM; for IC50: read-out: Potency LSD-2 IC50
T1 sequence (Q8NB78 1-822): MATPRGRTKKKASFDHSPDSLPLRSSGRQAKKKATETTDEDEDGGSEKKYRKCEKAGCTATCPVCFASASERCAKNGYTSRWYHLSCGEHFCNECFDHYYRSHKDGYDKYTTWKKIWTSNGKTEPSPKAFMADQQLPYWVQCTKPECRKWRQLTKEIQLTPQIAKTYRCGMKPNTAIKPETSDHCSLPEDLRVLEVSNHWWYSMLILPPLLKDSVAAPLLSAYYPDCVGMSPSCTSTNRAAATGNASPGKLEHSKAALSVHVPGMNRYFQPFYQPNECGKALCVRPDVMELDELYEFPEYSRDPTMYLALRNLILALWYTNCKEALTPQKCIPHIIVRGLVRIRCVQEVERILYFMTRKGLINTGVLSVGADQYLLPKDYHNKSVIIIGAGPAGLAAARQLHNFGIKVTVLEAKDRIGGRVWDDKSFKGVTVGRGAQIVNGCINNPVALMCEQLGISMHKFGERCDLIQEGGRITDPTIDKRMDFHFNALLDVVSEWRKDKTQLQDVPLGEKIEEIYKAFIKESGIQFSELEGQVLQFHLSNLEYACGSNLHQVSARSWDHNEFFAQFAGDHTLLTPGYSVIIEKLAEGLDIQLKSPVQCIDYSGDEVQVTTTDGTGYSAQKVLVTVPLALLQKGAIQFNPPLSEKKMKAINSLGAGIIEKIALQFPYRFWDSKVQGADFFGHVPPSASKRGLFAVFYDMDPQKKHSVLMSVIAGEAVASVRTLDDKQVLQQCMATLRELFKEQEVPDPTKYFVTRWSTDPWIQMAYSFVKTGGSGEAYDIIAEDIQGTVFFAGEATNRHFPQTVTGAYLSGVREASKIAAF
Method: as §1, §2, §3, §4

GSK3α = GSK3α (Homo sapiens, UniProt P49840); test: GSK3α in vitro enzymatic assay (Kinase-Glo Max luminescence); details: recombinant human GSK3, 10 μM ATP; approximate values; read-out: Potency GSK3alpha
Method: (§5) Enzymatic activities of compounds of the present disclosure can be tested using recombinant human GSK3 in an in vitro enzymatic assay to determine the ability of the compounds of the present disclosure to inhibit GSK3α and GSK3β.
(§6) The assay was performed using Kinase-Glo® Max luminescence kinase assay kit (Promega). The assay measures kinase activity by quantitating the amount of ATP remaining in solution following a kinase reaction. The luminescent signal from the assay is correlated with the amount of ATP present and is inversely correlated with the amount of kinase activity.
(§7) To perform the assay, compounds were diluted in 10% DMSO and 5 μl of the dilution was added to a 50 μl reaction so that the final concentration of DMSO was 1% in all of reactions. The enzymatic reactions were conducted at 30° C. for 40 minutes. The 50 μl reaction mixture contained 40 mM Tris, pH 7.4, 10 mM MgCl2, 0.1 mg/ml BSA, 2 mM DTT, 0.1 mg/ml GSK tide substrate, 10 uM ATP and GSK3. After the enzymatic reaction, 50 μl of Kinase-Glo Max Luminescence kinase assay solution (Promega) was added to each reaction and plates were incubated for 15 minutes at room temperature. Luminescence signal was measured using a BioTek Synergy 2 microplate reader.
(§8) Kinase activity assays were performed in duplicate at each concentration. The luminescence data were analyzed using the computer software, GraphPad Prism. The difference between luminescence intensities in the absence of Kinase (Lut) and in the presence of Kinase (Luc) was defined as 100% activity (Lut-Luc). Using luminescence signal (Lu) in the presence of the compound, percent activity was calculated as: % activity={(Lut-Lu)/(Lut-Luc)}×100%, where Lu=the luminescence intensity in the presence of the compound (all percent activities below zero were shown zero in the table).
as §4, with “The values” for “The value”, “concentrations were” for “concentrations was”, “The ICs,” for “The IC50”

GSK3β = GSK3β (Homo sapiens, UniProt P49841); test: GSK3β in vitro enzymatic assay (Kinase-Glo Max luminescence); details: recombinant human GSK3, 10 μM ATP; approximate values; read-out: Potency GSK3beta
Method: as §5, §6, §7, §8
as §4, with “The values” for “The value”, “concentrations were” for “concentrations was”, “The ICs,” for “The IC50”

Sequence of GSK3β (P49841 whole entry): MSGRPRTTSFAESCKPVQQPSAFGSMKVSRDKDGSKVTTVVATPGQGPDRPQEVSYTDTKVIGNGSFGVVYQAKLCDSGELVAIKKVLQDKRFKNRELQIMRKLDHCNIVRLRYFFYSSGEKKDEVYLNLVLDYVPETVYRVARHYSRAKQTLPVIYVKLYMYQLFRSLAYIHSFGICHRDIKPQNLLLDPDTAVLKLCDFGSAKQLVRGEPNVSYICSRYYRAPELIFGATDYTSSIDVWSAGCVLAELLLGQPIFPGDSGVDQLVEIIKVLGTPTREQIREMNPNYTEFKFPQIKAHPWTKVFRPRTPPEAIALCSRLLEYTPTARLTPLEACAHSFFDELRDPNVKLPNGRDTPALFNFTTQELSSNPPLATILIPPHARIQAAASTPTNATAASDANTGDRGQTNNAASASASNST
Sequence of GSK3α (P49840 whole entry): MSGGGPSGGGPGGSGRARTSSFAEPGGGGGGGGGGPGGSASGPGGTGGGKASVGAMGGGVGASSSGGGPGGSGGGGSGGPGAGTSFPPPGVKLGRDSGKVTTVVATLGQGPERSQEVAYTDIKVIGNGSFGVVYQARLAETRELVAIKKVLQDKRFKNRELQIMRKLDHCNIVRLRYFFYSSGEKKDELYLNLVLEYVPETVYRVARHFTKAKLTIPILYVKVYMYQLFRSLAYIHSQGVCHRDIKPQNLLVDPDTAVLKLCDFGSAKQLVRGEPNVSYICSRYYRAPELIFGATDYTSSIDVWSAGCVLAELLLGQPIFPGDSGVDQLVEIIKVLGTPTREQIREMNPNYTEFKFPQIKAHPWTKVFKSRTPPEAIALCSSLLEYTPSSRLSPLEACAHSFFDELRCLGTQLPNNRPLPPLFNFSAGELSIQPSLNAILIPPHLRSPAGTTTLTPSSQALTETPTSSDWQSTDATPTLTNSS

Structure (SMILES) | IC50 (LSD-1) [µM] | inhibition at 50 µM (LSD2) [%] | IC50 (GSK3α) [µM] | IC50 (GSK3β) [µM] | inhibition at 50 µM (LSD-1; 50 μM compound) [%] | IC50 (LSD2) [µM] | Potency LSD-1 % Inhibition at 50 μM (LSD-1; 50 μM compound, 50 µM) [% @ 50 μM]
CCn1cc(C(=O)O)c(=O)c2c(N)c(F)c(N[C@H]3CC[C@H](N[C@@H]4C[C@H]4c4ccccc4)CC3)cc21 (relative stereo) [Compound I-27] | 1.6 | 45 | 0.047 | 0.075 | – | – | –
CCCn1cc(C(=O)O)c(=O)c2c(N)c(F)c(NCCN[C@@H]3C[C@H]3c3ccccc3)cc21 (relative stereo) [Compound I-87] | 3.3 | 15 | 0.114 | 0.157 | – | – | –
CCn1cc(C(=O)O)c(=O)c2c(N)c(F)c(N[C@@H]3CC[C@@H]3c3ccccc3)cc21 (relative stereo) [Compound I-14] | – | 3 | > 10 | > 10 | 5 | – | –
CCn1cc(C(=O)O)c(=O)c2c(N)cc(NCCCc3ccccc3)cc21 [Compound I-57] | – | 42 | 0.762 | 1.76 | 83 | – | –
CCn1cc(C(=O)O)c(=O)c2c(N)c(F)c(N[C@@H]3C[C@H]3c3ccccc3)cc21 [Compound I-21] | – | 0 | 0.392 | 0.334 | 19 | – | –
CCn1cc(C(=O)O)c(=O)c2c(N)c(F)c(N3CCC(N[C@@H]4C[C@H]4c4ccccc4)CC3)cc21 (relative stereo) [Compound I-26] | 1.5 | 53 | > 10 | > 10 | – | – | –
CCn1cc(C(=O)O)c(=O)c2c(N)c(F)c(N[C@@H]3C[C@@H]3c3ccccc3)cc21 (relative stereo) [Compound I-23] | – | 16 | 0.221 | 0.77 | 26 | – | –
CCn1cc(C(=O)O)c(=O)c2c(N)c(F)c(NC3CC(N[C@@H]4C[C@H]4c4ccccc4)C3)cc21 (relative stereo) [Compound I-70] | 1.1 | – | 0.207 | 0.169 | – | > 100 | –
CCn1cc(C(=O)O)c(=O)c2c(N)c(F)c(NCCN[C@@H]3C[C@@]34CCc3ccccc34)cc21 (relative stereo) [Compound I-82] | 0.19 | 76 | 1.55 | 3.38 | – | – | –
CC(C)n1cc(C(=O)O)c(=O)c2c(N)c(F)c(N[C@]3(C)C[C@@H](N[C@@H]4C[C@H]4c4ccccc4)C3)cc21 (relative stereo) [Compound I-93] | – | 2 | 3.95 | 6.54 | 3 | – | –
CCn1cc(C(=O)O)c(=O)c2c(N)c(F)c(NC3CCCCC3)cc21 [Compound I-7] | – | 5 | 0.038 | 0.018 | 10 | – | –
CCn1cc(C(=O)O)c(=O)c2c(N)c(F)c(N[C@H]3C[C@H](c4ccccc4)C3)cc21 [Compound I-60] | – | 4 | 0.032 | 0.031 | 15 | – | –
Nc1c(F)c(NCCN[C@@H]2C[C@H]2c2ccccc2)cc2c1c(=O)c(C(=O)O)cn2C1CC1 (relative stereo) [Compound I-89] | 7.4 | 5 | 0.393 | 0.308 | – | – | –
CCn1cc(C(N)=O)c(=O)c2c(N)c(F)c(NCCc3ccccc3)cc21 [Compound I-66] | – | 4 | 0.0026 | 0.0025 | 6 | – | –
CCn1cc(C(=O)O)c(=O)c2c(N)c(F)c(NC3CCOCC3)cc21 [Compound I-8] | – | 1 | 0.713 | 0.452 | 10 | – | –
CCn1cc(C(=O)O)c(=O)c2c(N)c(F)c(NCCCc3ccccc3)cc21 [Compound I-19] | – | 17 | 0.019 | 0.029 | 27 | – | –
CCn1cc(C(=O)O)c(=O)c2c(N)c(F)c(NCCN[C@@H]3C[C@H]3c3ccccc3)cc21 (relative stereo) [Compound I-29] | 6.9 | 54 | 0.119 | 0.303 | – | – | –
CCn1cc(C(=O)O)c(=O)c2c(N)c(F)c(NC3CCC3)cc21 [Compound I-12] | – | 0 | 0.082 | 0.055 | 36 | – | –
CCn1cc(C(=O)O)c(=O)c2c(N)c(F)c(N[C@@H]3C[C@H]3c3ccccc3)cc21 (single isomer, unassigned) [Compound I-20] | – | 10 | 0.102 | 0.338 | – | – | <10
CCC(CC)n1cc(C(=O)O)c(=O)c2c(C)c(F)c(NC3CCCCC3)cc21 [Compound I-3] | – | 0 | 0.25 | 0.366 | 13 | – | –
CCn1cc(C(=O)O)c(=O)c2c(N)c(F)c(N(C)CCN[C@H]3C[C@@H]3c3ccccc3)cc21 (relative stereo) [Compound I-50] | 5.5 | 50 | > 10 | > 10 | – | – | –
CCn1cc(C(=O)O)c(=O)c2c(N)c(F)c(Nc3ccc([C@@H]4C[C@H]4N)cc3)cc21 (relative stereo) [Compound I-62] | > 100 | – | 0.449 | 0.504 | – | 49 | –
